What was measured:
Testpflanzen [1] = assay: Pre-emergence test (herbicidal damage to test plants); format: in vivo; settings: damage rated after three weeks against untreated control, compared with Vergleichssubstanz (A) (Oxadiazone/Ronstar)
From the text: Lösungsmittel: 5 Gewichtsteile Aceton Emulgator: 1 Gewichtsteil Alkylarylpolyglykolether
(§1) Zur Herstellung einer zweckmäßigen Wirkstoffzubereitung vermischt man 1 Gewichtsteil Wirkstoff mit der angegebenen Menge Lösungsmittel, gibt die angegebene Menge Emulgator zu und verdünnt das Konzentrat mit Wasser auf die gewünschte Konzentration.
Samen der Testpflanzen werden in normalen Boden ausgesät und nach 24 Stunden mit der Wirkstoffzubereitung begossen. Dabei hält man die Wassermenge pro Flächeneinheit zweckmäßigerweise konstant. Die Wirkstoffkonzentration in der Zubereitung spielt keine Rolle, entscheidend ist nur die Aufwandmenge des Wirkstoffs pro Flächeneinheit. Nach drei Wochen wird der Schädigungsgrad der Pflanzen bonitiert in % Schädigung im Vergleich zur Entwicklung der unbehandelten Kontrolle. Es bedeuten: 0 % = keine Wirkung (wie unbehandelte Kontrolle) 100 % = totale Vernichtung

Testpflanzen [2] = assay: Post-emergence test (herbicidal damage to test plants); format: in vivo; settings: plants 5 - 15 cm, 2000 l Wasser/ha, damage rated after three weeks, compared with Vergleichssubstanz (A) (Oxadiazone/Ronstar)
From the text: Lösungsmittel: 5 Gewichtsteil Aceton Emulgator: 1 Gewichtsteil Alkylarylpolyglykolether
as §1
Mit der Wirkstoffzubereitung spritzt man Testpflanzen, welche eine Höhe von 5 - 15 cm haben so, daß die jeweils gewünschten Wirkstoffmengen pro Flächeneinheit ausgebracht werden. Die Konzentration der Spritzbrühe wird so gewählt, daß in 2000 l Wasser/ha die jeweils gewünschten Wirkstoffmengen ausgebracht werden. Nach drei Wochen wird der Schädigungsgrad der Pflanzen bonitiert in % Schädigung im Vergleich zur Entwicklung der unbehandelten Kontrolle.
Es bedeuten: 0 % = keine Wirkung (wie unbehandelte Kontrolle) 100 % = totale Vernichtung

Compound | Wirksamkeit gegenüber der Vergleichssubstanz (A) (Testpflanzen [1]) | Wirksamkeit gegenüber der Vergleichssubstanz (A) (Testpflanzen [2])
7-Fluor-6-trimethylpyrazolyl-4-propargyl-3,4-dihydro-3-oxo-2H-1,4-benzoxazin [Beispiel 4] | deutliche Überlegenheit | deutliche Überlegenheit
O=C1COc2ccc(-n3nc4c(c3Cl)CCCC4)cc2N1 [Beispiel 30, 2-(3,4-dihydro-3-oxo-2H-1,4-benzoxazinyl)-3-chloro-4,5,6,7-tetrahydro-2H-indazol] | deutliche Überlegenheit | 
C#CCN1C(=O)COc2cc(F)c(-n3nc(C(C)(C)C)oc3=O)cc21 [Beispiel 5, 7-Fluor-4-propargyl-6-(2-tert-butyl-5-oxo-4,5-dihydro-1H-1,3,4-oxadiazol-3-yl)-3,4-dihydro-3-oxo-2H-1,4-benzoxazin] | deutliche Überlegenheit | deutliche Überlegenheit
CC(C)(C)c1nn(-c2cc3c(cc2F)OCC(=O)N3)c(=O)o1 [Beispiel 3, 7-Fluor-6-(2-tert-butyl-5-oxo-4,5-dihydro-1H-1,3,4-oxadiazol-3-yl)-3,4-dihydro-3-oxo-2H-1,4-benzoxazin] | deutliche Überlegenheit | deutliche Überlegenheit
2-(3,4-Dihydro-3-oxo-4-propargyl-2H-1,4-benzoxazinyl)-3-chloro-4,5,6,7-tetrahydro-2H-indazol [Beispiel 31] | deutliche Überlegenheit | deutliche Überlegenheit
C#CCN1C(=O)COc2cc(F)c(-n3nc(C)c(Cl)c3C)cc21 [Beispiel 24, 7-Fluor-6-(3,5-dimethyl-4-chlorpyrazol)-4-propargyl-3,4-dihydro-3-oxo-2H-1,4-benzoxazin] | deutliche Überlegenheit | 

— patent EP0334055A2, “Substituted benzoxazinones, several processes and intermediates for their preparation and their use as herbicides” (BAYER AG, priority 1988, dated 1989)
